Measurements as given in EP4775199A1, “DRUG-RELEASING ELECTROACTIVE IMPLANT FOR NERVOUS SYSTEM REPAIR” (priority 2023, dated 2025).
“Also recorded” adds a separate entry of the source.

Experiments:
[1] = system: meningeal fibroblasts; type: cell-based, rat; conditions: 10 nM SB743921, 48 hours; control almost 90 %
Description: Meningeal fibroblasts were cultured from adult rat dura mater and arachnoid mater in the presence of fetal bovine serum following published procedures (Collazos-Castro JE, Polo JL, Hernández-Labrado […]. Bioelectrochemical Control of Neural Cell Development on Conducting Polymers. Biomaterials 2010;31:9244-9255). […] The behavior of living cells was studied by means of videomicroscopy, capturing images every 30 minutes for 48 hours. In separate cultures, cell proliferation was also studied by means of the incorporation of 5-ethynyl-2'-deoxyuridine (EdU).

[2] = Systemic (subcutaneous) administration of SB743921 after spinal cord transection; type: in vivo, rats; conditions: rat, in vivo, every 12 hours, starting 12 hours post-injury, at 7 DPI
Description: (§1) A spinal transection model in adult male Wistar rats was used. Experimental protocols followed European Commission regulations and Spanish legislation for the protection of experimental animals (86/609/EEC, 32/2007, and 223/1988) and were approved by the Ethical Committee for Animal Experimentation of the Hospital Nacional de Parapléjicos of Toledo, Spain. In summary, animals were anesthetized by intraperitoneal (IP) injection of pentobarbital (50 mg/kg) and xylazine (10 mg/kg), providing supplemental doses of 30% one and a half hours later as needed. There were also administered atropine (0.04 mg/kg, IP) to decrease bronchial secretions, marbofloxacin as a prophylactic antibiotic, and ophthalmic ointment to prevent corneal abrasion. A dorsal laminectomy of the T9-T10 vertebrae, under which the T10 and T11 spinal segments are located, respectively, was performed. A small diagonal cut was made in the dura mater, followed by complete spinal cord transection. After a second more rostral cut, the tissue in between was extirpated leaving a neural tissue gap of about 2 mm (Figure 1A). Bleeding was controlled by introducing a fragment of Espongostan® into the cavity, which was removed once hemostasis was achieved. Durorrhaphy was then performed with simple stitches using 10-0 thread; and finally, the muscles and skin were sutured in layers.
(§2) The same spinal cord transection model described in Example 1 was used, in other words, a 2 mm neural gap was created and the dura mater was sutured without other treatments at the injured site. The drug was dissolved in water at 0.8 mg/ml and administered subcutaneously (SC).
(§3) Neural damage, Fibrosis development, inflammation, and repair responses (axonal growth, glial migration, blood vessel growth) were evaluated by means of immunohistochemical staining for axons (neurofilament, NF, Sigma-Aldrich N0142; serotonin, ImmunoSolution IG1112; tyrosine hydroxylase, TH, Sigma AB152), neuronal somas and their dendrites (microtubule-associated protein, MAP2, Sigma M1406), astroglia (glial fibrillary acidic protein, GFAP, BD Biosciences 556327); pericytes and fibroblasts (PDGFR, Abcam AB32570; type IV collagen, Meridian, T40251R), macrophages and microglia (ED1; Chemicon MAB 1435; isolectin B4, Fisher I21411), and endothelial cells (RECA1, Bio-Rad, MCA970R).

[3] = system: rats with spinal cord transection; test: as above; type: in vivo; conditions: for Reduction of fibrosis: 7 DPI
Description: as §1, §2, §3

[4] = system: rats with spinal cord transection
[5] = regimen a: 1 mg/kg subcutaneous, one dose every 24 hours for 2, 4, or 6 days, starting 12 hours post-injury
[6] = regimen b: 1 mg/kg SC, 5 doses, every 12 hours, starting 12 hours post-injury
[7] = regimen c: 1 mg/kg SC, 4 doses, every 12 hours, starting 24 hours post-injury
[8] = regimen e: 1,125 mg/kg SC, 4 doses, every 12 hours, starting 12 hours post-injury

With Cc1ccc(C(=O)N(CCCN)[C@@H](c2oc3cc(Cl)ccc3c(=O)c2Cc2ccccc2)C(C)C)cc1 [SB743921] the “cells that incorporated EdU” value [1] was 20%, the mortality at 168 h ([2]; 1.125 mg/kg, regimen e: 1,125 mg/kg SC, 4 doses) was greater than 90% and the mortality at 168 h ([2]; regimen b: 1 mg/kg SC, 5 doses) was greater than 50%. For the same compound, the neural tissue gap ([3]; Figure 3, 7 DPI, GFAP and MAP2 labeling, initial gap 2 mm) was “less than 500 µm”, the “fibrosis (PDGFR)” value ([3]; Figure 3, 7 DPI, regimen not stated) was “partial reduction” and the Neural tissue damage ([3]; rat, in vivo, sc, 1 mg/kg) was “Severe spinal atrophy with 6 doses”. The Systemic adverse effects [3, 5] was “No detected in the period of survival (7 days post-injury, DPI)”, the Reduction of fibrosis [3, 5] was “Slight reduction from the 4th dose” and the “signs of neurotoxicity in the perilesional tissue” value ([3]; regimen b) was “no obvious signs of neurotoxicity”. The Neural tissue damage [3, 6] was “Mild microhemorrhages”, the Systemic adverse effects [3, 6] was “Diarrhea, peritonitis” and the Reduction of fibrosis [3, 6] was “partially reduced fibrosis; also recorded: Partial”. For the same compound, the “animals that had died 7 DPI” value ([3]; regimen b, signs of enterocolitis and bacterial translocation or intestinal perforation) was “Four of the seven”, the Neural tissue damage [3, 7] was “Increases due to inflammation” and the Reduction of fibrosis [3, 7] was “Inconsistent”. The Reduction of fibrosis ([3]; regimen d: 1 mg/kg SC, 4 doses, every 12 hours, starting 12 hours post-injury) was “Inconsistent”, the Neural tissue damage [3, 8] was “Inconsistent” and the Systemic adverse effects [3, 8] was “Diarrhea, peritonitis”. For the same compound, the Reduction of fibrosis [3, 8] was “Inconsistent”.
For Cc1ccc(NC(=O)c2ccc(CN3CCN(C)CC3)cc2)cc1Nc1nccc(-c2cccnc2)n1 [imatinib], the “safety (death, adverse effects)” value ([4]; imatinib regimen a: 4 doses of 5 mg/kg SC, every 12 hours, starting 12 hours post-injury, with implant and ES) was “completely safe”, the “inflammatory cells in the perilesional spinal segments” value ([4]; imatinib regimen a: 4 doses of 5 mg/kg SC, every 12 hours, with implant and ES) was “reduced presence of inflammatory cells” and the “PDGFR+ residual fibrotic tissue in the injury site” value ([4]; imatinib regimen b: regimen a and additionally 5 mg/kg everyday until the end of electrostimulation, with implant and ES) was “practically eliminated”. The “cases with separation of the stumps of the spinal cord” value ([4]; imatinib regimen b, with implant and ES) was “two thirds”, the “distance between the astrocyte front of the stumps” value ([4]; imatinib regimen b, with implant and ES, 14 DPI, remaining one-third of the animals) was “about 400 µm” and the “axonal extension and branching” value ([4]; implant with ES combined with subcutaneous imatinib versus implant with ES alone) was “significantly increasing axonal extension and branching”.
